Data reported in ChEMBL document CHEMBL4610120, “New Broad-Spectrum Antibiotics Containing a Pyrrolobenzodiazepine Ring with Activity against Multidrug-Resistant Gram-Negative Bacteria” (J Med Chem, 2020).
Converted amounts (≈) assume the structure as drawn. The source made the active and inactive calls. The rule behind the calls is not given here.

Experiments:
Klebsiella pneumoniae [1] = experiment: Ratio of MIC for multidrug-resistant Klebsiella pneumoniae NCTC 13368-7-R1 measured after 10 passages to MIC for multidrug-resistant Klebsiella pneumoniae NCTC 13368-7-R1 measured after 10 passages in presence of efflux pump inhibitor PAbetaN; type: functional
Acinetobacter baumannii [2] = experiment: Antimicrobial activity against Acinetobacter baumannii ATCC 17978 by microdilution broth method; type: functional
Pseudomonas aeruginosa [3] = experiment: Antimicrobial activity against Pseudomonas aeruginosa PAO1 by microdilution broth method; type: functional
Enterococcus faecalis = experiment: Antibacterial activity against vancomycin resistant Enterococcus faecalis NCTC 12201 by microdilution broth method; type: functional
Staphylococcus aureus [4] = experiment: Antibacterial activity against methicillin resistant Staphylococcus aureus NCTC 13616 by microdilution broth method; type: functional
Staphylococcus aureus [5] = experiment: Antibacterial activity against methicillin resistant Staphylococcus aureus NCTC 13277 by microdilution broth method; type: functional
Klebsiella pneumoniae [6] = experiment: Antimicrobial activity against multidrug-resistant Klebsiella pneumoniae 51851 by microdilution broth method; type: functional
Acinetobacter baumannii [7] = experiment: Antimicrobial activity against multidrug-resistant Acinetobacter baumannii NCTC 13424 by microdilution broth method; type: functional
Acinetobacter baumannii [8] = experiment: Antimicrobial activity against multidrug-resistant Acinetobacter baumannii UKA7 by microdilution broth method; type: functional
Escherichia coli [9] = experiment: Antimicrobial activity against multidrug-resistant Escherichia coli CFI_017_VIM4 by microdilution broth method; type: functional
Escherichia coli [10] = experiment: Antimicrobial activity against multidrug-resistant Escherichia coli LEC001 by microdilution broth method; type: functional
[11] = Antimicrobial activity against multidrug-resistant Burkholderia cepacia complex CEP509 by microdilution broth method; type: functional
[12] = Antimicrobial activity against multidrug-resistant Burkholderia cepacia complex NCTC 17765 by microdilution broth method; type: functional
[13] = Antimicrobial activity against multidrug-resistant Burkholderia cepacia complex LMG 17997 by microdilution broth method; type: functional
Klebsiella pneumoniae [14] = experiment: Bactericidal activity against multidrug-resistant Klebsiella pneumoniae NCTC 13368 assessed as reduction in viable bacterial count at 4 times MIC measured after 24 hrs by Miles-Misra dilution method based time-kill assay; type: functional, organism-based
Klebsiella pneumoniae [15] = experiment: Antimicrobial activity against multidrug-resistant Klebsiella pneumoniae 16 in presence of efflux pump inhibitor CCCP by microdilution broth method; type: functional
Acinetobacter baumannii [16] = experiment: Antimicrobial activity against multidrug-resistant Acinetobacter baumannii AYE in presence of efflux pump inhibitor CCCP by microdilution broth method; type: functional
Acinetobacter baumannii [17] = experiment: Antimicrobial activity against multidrug-resistant Acinetobacter baumannii NCTC 13424 in presence of efflux pump inhibitor CCCP by microdilution broth method; type: functional
Pseudomonas aeruginosa [18] = experiment: Antimicrobial activity against Pseudomonas aeruginosa PAO1 in presence of efflux pump inhibitor CCCP by microdilution broth method; type: functional
Klebsiella pneumoniae [19] = experiment: Antimicrobial activity against multidrug-resistant Klebsiella pneumoniae 16 in presence of efflux pump inhibitor PAbetaN by microdilution broth method; type: functional
Acinetobacter baumannii [20] = experiment: Antimicrobial activity against multidrug-resistant Acinetobacter baumannii AYE in presence of efflux pump inhibitor PAbetaN by microdilution broth method; type: functional
Acinetobacter baumannii [21] = experiment: Antimicrobial activity against multidrug-resistant Acinetobacter baumannii NCTC 13424 in presence of efflux pump inhibitor PAbetaN by microdilution broth method; type: functional
Pseudomonas aeruginosa [22] = experiment: Antimicrobial activity against Pseudomonas aeruginosa PAO1 in presence of efflux pump inhibitor PAbetaN by microdilution broth method; type: functional
Klebsiella pneumoniae [23] = experiment: Antimicrobial activity against multidrug-resistant Klebsiella pneumoniae 16 in presence of membrane permeabilizer PMBN by microdilution broth method; type: functional
Pseudomonas aeruginosa [24] = experiment: Antimicrobial activity against Pseudomonas aeruginosa PAO1 in presence of membrane permeabilizer PMBN by microdilution broth method; type: functional
Klebsiella pneumoniae [25] = experiment: Ratio of MIC for multidrug-resistant Klebsiella pneumoniae 16 to MIC for multidrug-resistant Klebsiella pneumoniae 16 in presence of membrane permeabilizer PMBN; type: functional
Pseudomonas aeruginosa [26] = experiment: Ratio of MIC for multidrug-resistant Pseudomonas aeruginosa NCTC 13437 to MIC for multidrug-resistant Pseudomonas aeruginosa NCTC 13437 in presence of membrane permeabilizer PMBN; type: functional
DNA = experiment: Stabilization of 5'-FAM-TAT-AGA-TAT-AGA-TAT-TTT-ATA-TCT-ATA-TCT-ATA-3'-TAMRA DNA (unknown origin) assessed as reduction in change in melting temperature at 1:1 to 5:1 ligand to DNA ratio measured after 3 hrs by FRET-based assay relative to control; type: ADME, nucleic-acid assay
[27] = Cytotoxicity against human WI38 cells assessed as cell viability at 20 uM measured after 24 hrs by MTT assay relative to control; type: cell-based, WI-38; details: read-out: Activity
[28] = Selectivity ratio of cytotoxicity against human WI38 cells to MIC for Acinetobacter baumannii ATCC 17978; type: toxicity, cell-based
[29] = Selectivity ratio of cytotoxicity against human WI38 cells to MIC for multidrug-resistant Acinetobacter baumannii AYE; type: toxicity, cell-based
[30] = Selectivity ratio of cytotoxicity against human WI38 cells to MIC for Klebsiella pneumoniae M6; type: toxicity, cell-based
[31] = Selectivity ratio of cytotoxicity against human WI38 cells to MIC for multidrug-resistant Klebsiella pneumoniae NCTC 13368; type: toxicity, cell-based
[32] = Selectivity ratio of cytotoxicity against human WI38 cells to MIC for vancomycin resistant Enterococcus faecium NCTC 12204; type: toxicity, cell-based
[33] = Selectivity ratio of cytotoxicity against human WI38 cells to MIC for methicillin resistant Staphylococcus aureus NCTC 13277; type: toxicity, cell-based
[34] = biological target: T1, Protein RecA (Escherichia coli K-12) (UniProt P0A7G6); experiment: Induction of Escherichia coli K12 MG1655 recA promotor measured at 30 mins interval for 20 hrs by fluorescence assay relative to control; details: Escherichia coli str. K-12 substr. MG1655
T1 sequence (whole entry): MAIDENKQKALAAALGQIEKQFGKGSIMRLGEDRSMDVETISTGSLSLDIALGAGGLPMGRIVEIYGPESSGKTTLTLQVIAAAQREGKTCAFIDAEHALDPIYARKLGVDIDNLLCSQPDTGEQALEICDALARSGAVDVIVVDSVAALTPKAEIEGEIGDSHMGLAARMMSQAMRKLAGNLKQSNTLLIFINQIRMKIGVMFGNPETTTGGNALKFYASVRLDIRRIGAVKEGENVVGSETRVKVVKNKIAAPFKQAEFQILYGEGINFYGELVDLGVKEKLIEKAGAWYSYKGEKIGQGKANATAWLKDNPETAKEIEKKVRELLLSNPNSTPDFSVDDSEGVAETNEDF

[35] = biological target: T2, Cell division inhibitor SulA (Escherichia coli K-12) (UniProt P0AFZ5); experiment: Induction of Escherichia coli K12 MG1655 sulA promotor measured at 30 mins interval for 20 hrs by fluorescence assay relative to control; details: Escherichia coli str. K-12 substr. MG1655
T2 sequence (whole entry): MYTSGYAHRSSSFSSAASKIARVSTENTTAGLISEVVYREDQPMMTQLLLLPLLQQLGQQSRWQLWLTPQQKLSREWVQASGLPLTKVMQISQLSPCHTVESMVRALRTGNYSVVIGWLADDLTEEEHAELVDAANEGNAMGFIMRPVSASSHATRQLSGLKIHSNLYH

Klebsiella pneumoniae [36] = experiment: Antimicrobial activity against Klebsiella pneumoniae M137K by microdilution broth method; type: functional
Klebsiella pneumoniae [37] = experiment: Antimicrobial activity against Klebsiella pneumoniae tnkp1_lr150124p14q189 by microdilution broth method; type: functional

| Structure (SMILES) | MIC (Acinetobacter baumannii [2]) [µg/mL] | MIC (Pseudomonas aeruginosa [3]) [µg/mL] | MIC (Enterococcus faecalis) [µg/mL] | MIC (Staphylococcus aureus [4]) [µg/mL] | MIC (Staphylococcus aureus [5]) [µg/mL] | MIC (Klebsiella pneumoniae [6]) [µg/mL] | MIC (Escherichia coli [9]) [µg/mL] | MIC (Escherichia coli [10]) [µg/mL] | MIC [11] [µg/mL] | MIC [12] [µg/mL] | MIC [13] [µg/mL] | MIC (Klebsiella pneumoniae [15]) [µg/mL] | MIC (Acinetobacter baumannii [17]) [µg/mL] | MIC (Pseudomonas aeruginosa [18]) [µg/mL] | MIC (Klebsiella pneumoniae [19]) [µg/mL] | MIC (Acinetobacter baumannii [20]) [µg/mL] | MIC (Acinetobacter baumannii [21]) [µg/mL] | MIC (Pseudomonas aeruginosa [22]) [µg/mL] | MIC (Pseudomonas aeruginosa [24]) [µg/mL] | Ratio (Klebsiella pneumoniae [25]) | also measured |
| --- | --- | --- | --- | --- | --- | --- | --- | --- | --- | --- | --- | --- | --- | --- | --- | --- | --- | --- | --- | --- | --- |
| COc1cc2c(cc1OCCCC(=O)Nc1cc(C(=O)Nc3ccc4oc(C(=O)N5CCSCC5)cc4c3)n(C)c1)N=C[C@@H]1CCCN1C2=O | 2 (≈ 2.86 µM) | 32 to 128 (≈ 45.8 to 183 µM) | 0.25 (≈ 0.358 µM) | 2 (≈ 2.86 µM) | 2 (≈ 2.86 µM) | 4 (≈ 5.72 µM) | 2 (≈ 2.86 µM) | 2 (≈ 2.86 µM) | 8 (≈ 11.4 µM) | 1 (≈ 1.43 µM) | 0.25 (≈ 0.358 µM) | 0.12 to 1 | 1 | > 32 | 2 | 2 | 2 | 32 | 0.25 to 8 | 4 | Ratio (Klebsiella pneumoniae [1]): 4; MIC (Acinetobacter baumannii [7]): 1 to 2 µg/mL (≈ 1.43 to 2.86 µM); MIC (Acinetobacter baumannii [8]): 4 µg/mL (≈ 5.72 µM); Activity (Klebsiella pneumoniae [14]): inactive; MIC (Acinetobacter baumannii [16]): 4 µg/mL; MIC (Klebsiella pneumoniae [23]): 0.5 µg/mL; Ratio (Pseudomonas aeruginosa [26]): >=8 - 64; fold change (FC) (DNA): 3 to 4; viability at 24 h, 20 µM [27]: > 85%; selectivity ratio [28]: 10; selectivity ratio [29]: 10; selectivity ratio [30]: 10; selectivity ratio [31]: 10; selectivity ratio [32]: 100; selectivity ratio [33]: 100; fold change (FC) [34]: 8 to 10; fold change (FC) [35]: 6 to 7; MIC (Klebsiella pneumoniae [36]): 32 µg/mL (≈ 45.8 µM); MIC (Klebsiella pneumoniae [37]): > 128 µg/mL |
| COc1cc2c(cc1OCCCC(=O)Nc1cc(C(=O)Nc3ccc4sc(C(=O)N(C)C)cc4c3)n(C)c1)N=C[C@@H]1CCCN1C2=O | 0.5 to 1 (≈ 0.761 to 1.52 µM) | > 32 | 0.03 (≈ 0.0457 µM) | 0.03 (≈ 0.0457 µM) | 0.06 (≈ 0.0914 µM) | 2 (≈ 3.05 µM) | 1 (≈ 1.52 µM) | 1 (≈ 1.52 µM) | 2 (≈ 3.05 µM) | 0.125 (≈ 0.19 µM) | 0.125 (≈ 0.19 µM) | 0.06 to 0.5 | 0.25 | > 32 | 2 | 0.25 | 0.25 | 2 | 2 to 16 | 4 | Ratio (Pseudomonas aeruginosa [26]): 32 - 1000; fold change (FC) (DNA): 3 to 4; viability at 24 h, 20 µM [27]: > 85%; selectivity ratio [28]: 10; selectivity ratio [29]: 10; selectivity ratio [30]: 10; selectivity ratio [31]: 10; selectivity ratio [32]: 100; selectivity ratio [33]: 100; fold change (FC) [34]: 8 to 10; fold change (FC) [35]: 6 to 7; MIC (Klebsiella pneumoniae [36]): 16 to 32 µg/mL (≈ 24.4 to 48.7 µM); MIC (Klebsiella pneumoniae [37]): 16 to 32 µg/mL (≈ 24.4 to 48.7 µM) |
